Earlier results in patent US4916151A, “Method of treating parkinson's syndrome” (Merrell Dow Pharmaceuticals Inc., priority 1989, dated 1990).

What was measured:
[1] = literature
depression = conditions: literature reports
MAO = conditions: literature; selectivity lost as dosage is increased

Question: For `C#CCN(C)[C@H](C)Cc1ccccc1` [L-deprenyl], which “potentiation of L-dopa for treatment of Parkinson's disease” value [1] is on record?
Answer: Its value is “potentiate L-dopa for the treatment of Parkinson's disease without producing peripheral side effects”.

Question: What about the clinical antidepressant effect (depression) of the same compound?
Answer: The clinical antidepressant effect was “clinically effective antidepressant agents”.

Question: What about the “preferential inhibition of MAO-A or MAO-B” value (“preferential inhibition” below) (MAO) of the same compound?
Answer: The value was “MAO-B is preferentially inhibited”.

Question: With `Cc1cc(C(=O)NNCc2ccccc2)no1` [isocarboxazid] as the compound, how does the “preferential inhibition” value (MAO) read?
Answer: Its value is “not preferential in their action upon MAO”.

Question: For `NNCCc1ccccc1` [phenelzine], which “preferential inhibition” value (MAO) is on record?
Answer: Its value is “not preferential in their action upon MAO”.

Question: With `C#CCN(C)Cc1ccccc1` [pargyline] as the compound, how does the clinical antidepressant effect (depression) read?
Answer: The clinical antidepressant effect was “clinically effective antidepressant agents”.

Question: And the “preferential inhibition” value (MAO)?
Answer: Its value is “MAO-B is preferentially inhibited”.

Question: Which clinical antidepressant effect (depression) does the source give for `C#CCN(C)CCCOc1ccc(Cl)cc1Cl` [clorgyline] here?
Answer: The clinical antidepressant effect was “clinically effective antidepressant agents”.

Question: For `N[C@@H]1C[C@H]1c1ccccc1` (relative stereo) [tranylcypromine], which “preferential inhibition” value (MAO) is on record?
Answer: The value was “not preferential in their action upon MAO”.
